Data on seven molecules can be found in patent US20230271959A1, “HETEROCYCLIC COMPOUND AS BCL-2 INHIBITOR” (Beijing Innocare Pharma Tech Co., Ltd., priority 2020, published 2023).

The subject of data set [1] is patients with relapsed or refractory lymphoid malignancies. The conditions noted are these: cited from earlier work.
For data set [2], the system named is chronic lymphocytic leukemia (CLL) patients. The following applies: clinical; cited from earlier work.
For data set [3], the system named is RS4;11 cells (acute lymphoblastic leukemia cells). Put plainly: RS4;11 cell proliferation, CellTilter-Glo luminescence cell viability assay. It counts as cell-based. The conditions noted are these: Homo sapiens, RS4-11; CTG readout after 48 hours. In outline:
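RS4;11 cells plated overnight were exposed for 48 h at 37 °C, 5% CO2 to an 8-point, 4-fold compound dilution series; the vehicle control contained 0.2% DMSO. Viability was read by CellTiter-Glo luminescence. Percent inhibition was referenced to no-cell and DMSO controls, and IC50 came from a four-parameter sigmoidal fit.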

Data set [4] has as its system relapsed/refractory CLL, MCL, MM. The conditions noted are these: clinical; cited from earlier work.
Data set [5] concerns the target T1, human recombinant Bcl-XL protein (Homo sapiens, UniProt Q07817).
T1 construct: purchased Beijing Yiqiao Shenzhou Biotechnology Co., Ltd. 10455-H0SE
The experiment in a line: Fluorescence polarization test for inhibition of BCL-XL binding to FITC-BIM. The following applies: 10 nM BCL-XL, 10 nM FITC-BIM, read-out: FP BCL-XL IC50. Put shortly: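 Human recombinant Bcl-XL (10 nM diluted stock) preincubated with compound 15 min at RT in PBS pH 7.4, 1 mM DTT, then FITC-BIM peptide (10 nM diluted stock) added for 30 min in dark. FP read at ex 480/em 535 nm; no-protein wells = 100% inhibition; IC50 from 8-point 4-fold dilution curve fit.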
(In general: Fluorescence polarisation rises when a labelled molecule tumbles more slowly, as on binding a larger partner.)

Data set [6] concerns the target T2, human recombinant Bcl-2 protein (Homo sapiens, UniProt P10415).
T2 construct: purchased Beijing Yigiao Shenzhou Biotechnology Co., Ltd. 10195-HOSE
Put plainly: Fluorescence polarization test for inhibition of BCL-2 binding to FITC-BIM. The following applies: 5 nM BCL-2, 5 nM FITC-BIM, read-out: FP BCL-2 IC50. Put shortly: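 FP competition: compound preincubated 15 min with recombinant human Bcl-2 (diluted to 5 nM), then FITC-BIM (diluted to 5 nM) added for 30 min at room temperature in PBS pH 7.4 with 1 mM DTT. Polarization read at 480/535 nm; IC50 from 8-point 4-fold series fitted by four-parameter equation.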

pIC50: −log10 of the molar value.

A word on the pIC50: it is the negative decadic logarithm of the IC50, by convention in mol/L.

T1 sequence (Q07817 whole entry): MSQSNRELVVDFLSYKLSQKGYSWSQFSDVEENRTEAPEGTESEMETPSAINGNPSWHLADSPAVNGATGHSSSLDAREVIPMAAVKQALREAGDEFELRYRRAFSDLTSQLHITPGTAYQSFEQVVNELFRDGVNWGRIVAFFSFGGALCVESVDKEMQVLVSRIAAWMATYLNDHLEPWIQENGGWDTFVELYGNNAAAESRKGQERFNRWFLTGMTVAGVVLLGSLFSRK
T2 sequence (P10415 whole entry): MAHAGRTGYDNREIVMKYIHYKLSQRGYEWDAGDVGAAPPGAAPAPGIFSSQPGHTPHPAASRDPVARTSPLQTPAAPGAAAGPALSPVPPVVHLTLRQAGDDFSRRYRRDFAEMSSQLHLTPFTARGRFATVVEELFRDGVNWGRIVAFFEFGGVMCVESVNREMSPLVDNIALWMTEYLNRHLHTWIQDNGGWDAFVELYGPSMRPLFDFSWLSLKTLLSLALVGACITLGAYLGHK

In the case of `CC1(C)CCC(c2ccc(Cl)cc2)=C(CN2CCN(c3ccc(C(=O)NS(=O)(=O)c4ccc(N[C@H](CCN5CCOCC5)CSc5ccccc5)c(S(=O)(=O)C(F)(F)F)c4)cc3)CC2)C1` [Navitoclax], in data set [1] (Phase I dose escalation), the response is recorded as 50%. For the same molecule, the targeted toxicity entry in data set [1] (thrombocytopenia and severe anemia) is “very strong targeted toxicity related to BCL-XL”.

Regarding `COC1=CC(c2cc3ccccc3[nH]2)=N/C1=C\c1[nH]c(C)cc1C` [Obatoclax], the neurotoxicity result in data set [2] was “strong neurotoxicity”.

For the molecule `CC1(C)CCC(CN2CCN(c3ccc(C(=O)NS(=O)(=O)c4ccc(NCC5CCOCC5)c([N+](=O)[O-])c4)c(Oc4cnc5[nH]ccc5c4)c3)CC2)=C(c2ccc(Cl)cc2)C1` [Venetoclax, reference compound], the negative-log IC50 (pIC50) in data set [3] was 8.26. Also, in data set [4], the toxic side effects result was “toxic side effects such as leukopenia and thrombocytopenia, anemia, diarrhea, dizziness, fatigue, susceptibility to infection”.

On to `C[C@@H]1CN(c2ccc(C(=O)NS(=O)(=O)c3ccc(NC[C@H]4COCCO4)c([N+](=O)[O-])c3)c(Oc3cnc4[nH]ccc4c3)c2)CCN1CC1=C(c2ccc(Cl)cc2)CC(C)(C)C2(CC2)C1` [Example 34, N-((4-((((S)-1,4-dioxan-2-yl)methyl)amino)-3-nitrophenyl)sulfonyl)-2-((1H-pyrrolo[2,3-b]pyridin-5-yl)oxy)-4-((R)-4-((6-(4-chlorophenyl)-8,8-dimethylspiro[2.5]oct-5-en-5-yl)methyl)-3-methylpiperazin-1-yl) benzamide], for which the pIC50 in data set [3] was 8.18; in data set [5], less than 6.00; in data set [6], 8.48.

For `C[C@@H]1CN(CC2=C(c3ccc(Cl)cc3)CCC(C)(C)C2)CCN1c1ccc(C(=O)NS(=O)(=O)c2ccc(NC[C@H]3COCCO3)c([N+](=O)[O-])c2)c(Oc2cnc3[nH]ccc3c2)c1` [Example 44, N-((4-((((S)-1,4-dioxan-2-yl)methyl)amino)-3-nitrophenyl)sulfonyl)-2-((1H-pyrrolo[2,3-b]pyridin-5-yl)oxy)-4-((R)-4-((4′-chloro-4,4-dimethyl-3,4,5,6-tetrahydro-[1,1′-biphenyl]-2-yl)methyl)-2-methylpiperazin-1-yl) benzamide], the figures for the pIC50 in data set [3], in data set [5] and in data set [6] were 7.27, less than 6.00 and 8.30, respectively.

For `C[C@@H]1CN(CC2=C(c3ccc(Cl)cc3)CC(C)(C)CC2)CCN1c1ccc(C(=O)NS(=O)(=O)c2cc(F)c(NCC3CCN(C4COC4)CC3)c([N+](=O)[O-])c2)c(Oc2cnc3[nH]ccc3c2)c1` [Example 10, (R)-2-((1H-pyrrolo[2,3-b]pyridin-5-yl)oxy)-4-(4-((4′-chloro-5,5-dimethyl-3,4,5,6-tetrahydro-[1,1′-biphenyl]-2-yl)methyl)-2-methylpiperazin-1-yl)-N-((3-fluoro-5-nitro-4-(((1-(3-oxetanyl)piperidin-4-yl)methyl)amino)phenyl)sulfonyl)benzamide], the pIC50 in data set [3] was 7.17; in data set [5] it was less than 6.00; in data set [6] it was 8.09.

Turning to `C[C@@H]1CN(c2ccc(C(=O)NS(=O)(=O)c3ccc(NC[C@@H]4COCCO4)c([N+](=O)[O-])c3)c(Oc3cnc4[nH]ccc4c3)c2)CCN1CC1=C(c2ccc(Cl)cc2)CCC(C)(C)C1` [Example 54, N-((4-((((R)-1,4-dioxan-2-yl)methyl)amino)-3-nitrophenyl)sulfonyl)-2-((1H-pyrrolo[2,3-b]pyridin-5-yl)oxy)-4-((R)-4-((4′-chloro-4,4-dimethyl-3,4,5,6-tetrahydro-[1,1′-biphenyl]-2-yl)methyl)-3-methylpiperazin-1-yl)benzamide], the pIC50 in data set [3] is 7.60; in data set [5], less than 6.00; in data set [6] it was 7.96.
